PMC9124651, “High-performance thin-layer chromatography in combination with an acetylcholinesterase-inhibition bioassay with pre-oxidation of organothiophosphates to determine neurotoxic effects in storm, waste, and surface water” (Analytical and Bioanalytical Chemistry, 2022)
In brackets after ≈: the same amount, converted by molar mass.

Columns and labels:
[1] = biological target: T1, AChE from electric eel (Electrophorus electricus) (Electrophorus electricus, UniProt O42275); assay: HPTLC-(Ox)-AChE-I assay, immersion method (plates immersed in AChE solution); format: biochemical; conditions: without oxidation
T1 construct: purchased Sigma-Aldrich GmbH (Steinheim, Germany)
Protocol: (§1) LiChrospher 10 × 20 cm HPTLC Silica gel 60 F254s plates (Merck, Darmstadt, Germany) with a layer thickness of 170–190 µm and spherical silica particles with a size of 7 µm were used. The HPTLC plates were immersed twice in 2-propanol for 20 min, each time followed by a drying step at room temperature for 20 min. The plates then were pre-developed with methanol, dried for 20 min at room temperature, heated at 105 °C for 20 min, and stored in a desiccator for further use. The automatic TLC Sampler 4 (ATS 4, CAMAG AG, Muttenz, Switzerland) was used for sample application. The desired sample volumes were sprayed as 6-mm-wide bands onto the HPTLC plates with an application speed of 300 nL/s. The distances of the exterior bands from the edges of the plates were 15 mm. The distance from the bottom edge was 8 mm for all bands. Methanol was used as rinsing solvent. The following further application parameters were used: filling speed 15 µL/s, pre-dosage volume 200 nL, retraction volume 200 nL, rinsing vacuum time 4 s, filling vacuum time 0 s, rinsing cycles 2, and filling cycles 1. The development of the HPTLC plates was realized by the Automated Multiple Development 2 (AMD 2, CAMAG, Muttenz, Switzerland). The OTPs, their oxons, and environmental samples were separated with an eluent mixture of cyclohexane, dichloromethane, and acetone in different proportions and with increasing migration distances (Fig. S2). After each development step, a drying step of 3 min under vacuum followed. The final migration distance was 80 mm and the whole procedure took approximately 45 min. In addition, a simpler development process was used containing only the last step of the previous described method.
(§2) After chromatographic development, 10 mL of freshly prepared NBS (100 µg/mL) was sprayed onto the HPTLC plates with a glass reagent sprayer, followed by a 5-min incubation at room temperature. The following AChE-I assay was performed in parts according to Mendoza et al., Stütz et al., and Weins and Jork. AChE was buffered in TRIS/HCl at a pH of 7.8 (2.5 U/mL). The AChE solution was either sprayed onto the HPTLC plates with a glass reagent sprayer until the plates were evenly moist (approx. 10 mL) or the plates were immersed in the AChE solution using the Chromatogram Immersion Device 3 (CID 3, CAMAG, Muttenz, Switzerland). The immersion volume, speed, time, and depth were approx. 200 mL, 2.5 cm/s, 2 s, and approx. 85 mm, respectively. Afterward, the plates were placed separately in closed plastic boxes, which contained paper towels moistened with water to gain a saturated atmosphere. An incubation at 37 °C for 5 min followed. The substrate indoxyl acetate was freshly prepared in methanol at a concentration of 20 mg/mL and 5 mL was sprayed onto the HPTLC plates with a glass reagent sprayer. During 45-min incubation time at room temperature, AChE cleaves the substrate into indoxyl and acetate. The indoxyl reacts with oxygen to the blue indigo dye. When AChE was inhibited, no indigo was produced and the spot stayed white. The TLC Scanner 3 (CAMAG, Muttenz, Switzerland) was used to scan each track on the plates at 670 nm using the fluorescence mode without optical filter. The CAMAG-embedded software Wincats (Vers. 1.4.9) was used to provide chromatograms of each track and to evaluate inhibition zones.
Several amounts of an OTP mix and an oxon mix were applied on HPTLC plates (Tab. S2) and tested as described in the “Combination of HPTLC and AChE-inhibition assay” section. Three plates were used for each dilution series. The application volume was 10 µL for investigating OTPs with following oxidation and 100 µL for testing OTPs without following oxidation. The application volume for the oxons was 10 µL. They were tested without oxidation step also in triplicates. The peak heights were used for evaluation. Only peaks that have a signal-to-noise ratio ≥ 3 were considered in the evaluation. The height next to the respective peak defines the noise. […]

[2] = biological target: T1, AChE from electric eel (Electrophorus electricus); assay: HPTLC-(Ox)-AChE-I assay, spray method (AChE sprayed onto plates); format: biochemical
Protocol: as §1
as §2, with “The” for “After chromatographic development, 10 mL of freshly prepared NBS (100 µg/mL) was sprayed onto the HPTLC plates with a glass reagent sprayer, followed by a 5-min incubation at room temperature. The”
Several amounts of an OTP mix and an oxon mix were applied on HPTLC plates (Tab. S2) and tested as described in the “Combination of HPTLC and AChE-inhibition assay” section. Three plates were used for each dilution series. The application volume was 10 µL for investigating OTPs with following oxidation and 100 µL for testing OTPs without following oxidation. The application volume for the oxons was 10 µL. They were tested without oxidation step also in triplicates. The peak heights were used for evaluation. Only peaks that have a signal-to-noise ratio ≥ 3 were considered in the evaluation. The height next to the respective peak defines the noise.

[3] = biological target: T1, AChE from electric eel (Electrophorus electricus); assay: Recovery of AChE-I effect peak area in spiked water samples after SPE and HPTLC-Ox-AChE-I (spray); conditions: for Recovery of the effect peak area related to positive control (100%): spiked 100 ng OTP, SPE, 10 ng/spot, NBS oxidation, spray, ± SD, n = 4; for AChE-I effect recoveries in comparison to the positive control, range over samples: samples from stormwater retention basin and receiving stream, after SPE and HPTLC-Ox-AChE-I
Protocol: The samples were enriched by SPE within 24 h after sampling. Moreover, the field blank and water for a SPE blank were enriched in the same way. For additional matrix investigations, 1 mL malathion, parathion, and chlorpyrifos (100 ng/mL in methanol) were spiked into native samples taken in August 2020 and a water control before being loaded on the SPE cartridges. The cartridges (150 mg, Oasis HLB 6 cc, Waters GmbH, Eschborn, Germany) were conditioned with methanol (2 × 5 mL) and equilibrated with water (2 × 5 mL), before being loaded with 1000 ± 5 mL sample (the exact volume was determined by weighting) through a polytetrafluoroethylene tube. After drying the cartridges under vacuum, they were stored at − 18 °C until further usage. The cartridges were eluted with methanol (5 × 5 mL) that was evaporated afterward at 60 °C under a gentle nitrogen gas stream. The dried extracts were redissolved in 1 mL methanol to achieve a nominal 1000-fold enrichment.
The extracts, spiked samples, positive controls (PC: mix of malathion, parathion, and chlorpyrifos), and blanks were tested with the HPTLC-Ox-AChE-I method as described in the “Combination of HPTLC and AChE-inhibition assay” section. Each sample was tested in duplicates on two HPTLC plates (n = 4). The application volume was 100 µL resulting in a PC of 2000 ng/spot. The resulting amounts for the matrix investigation were 1000 and 10 ng/spot for the PCs and 10 ng/spot for the spiked samples. The matrix investigation was performed with and without the oxidation step. Excel was used to relate the peak areas of the spiked samples to the peak areas of the PCs (10 ng/spot). Differences between both approaches (oxidation and no oxidation) were shown by comparing the results of the spiked samples and PCs.

[4] = biological target: T1, AChE from electric eel (Electrophorus electricus); assay: AChE-inhibition microtiter assay (Ellman, 96-well, with or without NBS oxidation); format: biochemical; conditions: no oxidation, 4-PL fit, n = 4
Protocol: Stock solutions (1 mg/mL) of NBS and ascorbic acid were each freshly prepared before the test and then diluted to 10 µg/mL and 100 µg/mL, respectively. The assay was performed with modifications according to Ellman’s method. OTPs, oxons, water, and methanol blanks (15 µL) were each mixed with 15 µL of NBS (10 µg/mL) in a 96-well plate. After an incubation at room temperature for 5 min, the reaction was stopped by adding 15 µL ascorbic acid (100 µg/mL). For the test setup without oxidation, OTPs, oxons, water, and methanol blanks (15 µL) were mixed with 30 µL water per well. Subsequently, 200 µL of a DTNB solution (0.15 mM), buffered in TRIS/HCl at a pH of 7.4, was added to each well of both test setups. Then, 20 µL of an AChE solution (0.5 U/mL), also buffered in TRIS/HCl at a pH of 7.4, was added. An incubation at 30 °C for 30 min without shaking followed. An ATCL solution (0.8 mM) was freshly prepared with water and 30 µL per well was added after incubation. During another incubation at room temperature for 30 min, ATCL was cleaved by AChE into thiocholine and acetic acid. Thiocholine reacts with DTNB to 2-nitro-5-thiobenzoate. The absorbance of the yellow-colored anion was photometrically measured at 405 nm (Sunrise Remote, Tecan Group AG, Männedorf, Schweiz).
Dilution series with eight concentrations of the three OTPs and related oxons (Tab. S1) were freshly prepared from stock solutions (1–10 mg/mL) in methanol. The OTPs and oxons were tested in duplicates with and without prior oxidation in two measurements as described in the “AChE-inhibition microtiter assay” section. Eight water and eight methanol blanks were tested per test setup (oxidation and no oxidation). Of these, two were tested without AChE and two without ATCL. The mean AChE activity (absorption at 405 nm, n = 4) was related to the specific inhibitor dose. The statistic program Prism (version 5.00, Graph Pad Software, San Diego, USA) was used to generate dose–response curves (4-PL fit) and to determine inhibition concentrations (ICs) for the three OTPs and related oxons. The 95% confidence intervals of the curves and the standard deviations of the mean AChE activity were also calculated. The lower boundary of the curves is fixed to 0 and the highest mean activity defines 100%.

[5] = spray method, without oxidation
[6] = Spiked water (ultrapure water control)
[7] = sampling point Stormwater basin
[8] = OTPs 100 µL, oxons 10 µL applied, peak heights, n = 3
[9] = spray method, without oxidation, OTPs 100 µL, oxons 10 µL applied, peak heights, n = 3

T1 sequence (O42275 24-633): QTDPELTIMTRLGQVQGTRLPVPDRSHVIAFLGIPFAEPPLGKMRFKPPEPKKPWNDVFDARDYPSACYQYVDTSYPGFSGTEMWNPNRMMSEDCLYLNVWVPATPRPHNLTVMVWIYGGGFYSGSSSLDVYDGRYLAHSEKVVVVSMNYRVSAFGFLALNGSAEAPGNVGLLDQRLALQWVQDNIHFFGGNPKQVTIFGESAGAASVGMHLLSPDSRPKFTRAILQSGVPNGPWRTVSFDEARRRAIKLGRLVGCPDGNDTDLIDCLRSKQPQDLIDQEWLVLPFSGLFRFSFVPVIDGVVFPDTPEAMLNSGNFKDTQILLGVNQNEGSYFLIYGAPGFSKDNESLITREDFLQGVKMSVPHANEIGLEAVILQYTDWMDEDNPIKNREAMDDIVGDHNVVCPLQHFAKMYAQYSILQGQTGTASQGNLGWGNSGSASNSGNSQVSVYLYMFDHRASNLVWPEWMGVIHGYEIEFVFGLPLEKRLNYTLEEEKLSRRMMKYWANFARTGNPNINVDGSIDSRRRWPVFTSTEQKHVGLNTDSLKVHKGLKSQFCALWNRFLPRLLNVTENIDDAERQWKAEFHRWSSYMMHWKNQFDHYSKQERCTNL

| SMILES | LOD immersion method (first detected AChE-I peak with signal-to-noise ratio ≥ 3) [1] [ng/spot] | LOD spray method (first detected AChE-I peak with signal-to-noise ratio ≥ 3) [2, 5] [ng/spot] | Recovery of the effect peak area related to positive control (100%) [3, 6] [%] | AChE-I effect recoveries in comparison to the positive control, range over samples [3] | Recovery of the effect peak area related to positive control (100%) ([3]; sampling point Downstream) [%] | Recovery of the effect peak area related to positive control (100%) [3, 7] [%] | Recovery of the effect peak area related to positive control (100%) ([3]; sampling point Upstream) [%] | IC10 (10% AChE inhibition), best fit [1, 8] [ng/spot] | IC20 (20% AChE inhibition), best fit [1, 8] [ng/spot] | IC80 (80% AChE inhibition), best fit [1, 8] [ng/spot] | IC10 (10% AChE inhibition), best fit [2, 9] [ng/spot] | IC20 (20% AChE inhibition), best fit [2, 9] [ng/spot] | IC80 (80% AChE inhibition), best fit [2, 9] [ng/spot] | IC80 ([4]; read-out: IC20 (inhibition concentration for 20% AChE activity), best fit) [µg/mL] | IC20 ([4]; read-out: IC80 (inhibition concentration for 80% AChE activity), best fit) [µg/mL] | IC50 (50% AChE inhibition), best fit [1, 8] [ng/spot] | IC50 (50% AChE inhibition), best fit [2, 9] [ng/spot] | Effect of higher NBS concentration on AChE on the HPTLC plate ([2]; 1 mg/mL NBS tested for oxidation on HPTLC plate, application method not stated) |
| --- | --- | --- | --- | --- | --- | --- | --- | --- | --- | --- | --- | --- | --- | --- | --- | --- | --- | --- |
| CCOP(=S)(OCC)Oc1nc(Cl)c(Cl)cc1Cl [Chlorpyrifos, chlorpyrifos] | 500 | 250 | 63 ± 4 | 69–78% | 69 ± 5 | 74 ± 5 | 78 ± 7 | – | – | – | – | – | – | – | – | – | – | – |
| CCOP(=S)(OCC)Oc1ccc([N+](=O)[O-])cc1 [Parathion, parathion] | 500 | 100 | 74 ± 3 | 75–82% | 79 ± 13 | 75 ± 9 | 82 ± 10 | – | – | – | – | – | – | – | – | – | – | – |
| CCOP(=O)(OCC)Oc1ccc([N+](=O)[O-])cc1 [Paraoxon, paraoxon] | – | – | – | – | – | – | – | 0.60 | 0.99 | 5.4 | 0.79 | 1.2 | 5.9 | 0.071 (≈ 0.258 µM) | 0.016 (≈ 0.0581 µM) | – | – | – |
| CCOC(=O)CC(SP(=S)(OC)OC)C(=O)OCC (stereo not shown) [Malathion, malathion] | 250 | 250 | 85 ± 6 | – | 87 ± 12 | 81 ± 8 | 92 ± 11 | 313 | 536 | 3363 | 212 | 493 | 8910 | – | – | 1343 | 2096 | – |
| O=C1CCC(=O)N1Br [NBS, N-Bromosuccinimide] | – | – | – | – | – | – | – | – | – | – | – | – | – | – | – | – | – | lower activity or inhibition of AChE |
